Test results: patent US20120183631A1, “INGREDIENT EXTRACTED FROM POUZOLZIA ZEYLANICA (L.) BENN AND ITS ANTI-ACNE FORMULA” (priority 2011, published 2012)

System: endotoxin
Assay type: cell-based

## COc1cc(/C=C/C(=O)CC(=O)/C=C/c2ccc(O)c(OC)c2)ccc1O [Curcumin]
  Inhibition of endotoxin (in words): not restrained
